Measurements published in publication PMC9224473 (International Journal of Molecular Sciences, 2022).
≈ marks a conversion by molar mass, not a printed value.

Legend:
[1] = tested on: S. aureus NCTC 4163; test: MIC, broth microdilution, standard strain; assay type: cell-based, Staphylococcus aureus; settings: Staphylococcus aureus, NCTC4163, 19 h, 35 °C
[2] = tested on: S. aureus ATCC 25923; test: MIC, broth microdilution, standard strain; assay type: cell-based, Staphylococcus aureus; settings: Staphylococcus aureus, ATCC25923, 19 h, 35 °C
[3] = tested on: S. aureus ATCC 6538; test: MIC, broth microdilution, standard strain; assay type: cell-based, Staphylococcus aureus; settings: Staphylococcus aureus, ATCC6538, 19 h, 35 °C
[4] = tested on: S. aureus ATCC 29213; test: MIC, broth microdilution, standard strain; assay type: cell-based, Staphylococcus aureus; settings: Staphylococcus aureus, ATCC29213, 19 h, 35 °C
[5] = tested on: S. epidermidis ATCC 12228; test: MIC, broth microdilution, standard strain; assay type: cell-based, Staphylococcus epidermidis; settings: Staphylococcus epidermidis, ATCC12228, 19 h, 35 °C
[6] = tested on: S. epidermidis ATCC 35984; test: MIC, broth microdilution, standard strain; assay type: cell-based, Staphylococcus epidermidis; settings: Staphylococcus epidermidis, ATCC35984, 19 h, 35 °C
[7] = tested on: E. coli ATCC 25922; test: MIC, broth microdilution, standard strain; assay type: cell-based, Escherichia coli; settings: 35 °C; for MIC E. coli ATCC 25922: 19 h; for MIC: Escherichia coli, ATCC25922, 19 h
[8] = tested on: P. aeruginosa ATCC 15442; test: MIC, broth microdilution, standard strain; assay type: cell-based, Pseudomonas aeruginosa; settings: Pseudomonas aeruginosa, ATCC15442, 19 h, 35 °C
[9] = tested on: S. epidermidis KR 4243; test: MIC, broth microdilution, clinical strain; assay type: cell-based, Staphylococcus epidermidis; settings: Staphylococcus epidermidis, KR4243, 19 h, 35 °C
[10] = tested on: S. pasteuri KR 4358; test: MIC, broth microdilution, clinical strain; assay type: cell-based, Staphylococcus pasteuri; settings: Staphylococcus pasteuri, KR4358, 19 h, 35 °C
[11] = tested on: S. aureus T 5595; test: MIC, broth microdilution, clinical strain; assay type: cell-based, Staphylococcus aureus; settings: Staphylococcus aureus, T5595, 19 h, 35 °C
[12] = tested on: S. aureus T 5591; test: MIC, broth microdilution, clinical strain; assay type: cell-based, Staphylococcus aureus; settings: Staphylococcus aureus, T5591, 19 h, 35 °C
[13] = tested on: E. coli 520; test: MIC, broth microdilution, clinical strain; assay type: cell-based, Escherichia coli; settings: Escherichia coli, 520, 19 h, 35 °C
[14] = tested on: E. coli 600; test: MIC, broth microdilution, clinical strain; assay type: cell-based, Escherichia coli; settings: Escherichia coli, 600, 19 h, 35 °C
[15] = tested on: E. coli 510; test: MIC, broth microdilution, clinical strain; assay type: cell-based, Escherichia coli; settings: Escherichia coli, 510, 19 h, 35 °C
[16] = tested on: P. aeruginosa 659; test: MIC, broth microdilution, clinical strain; assay type: cell-based, Pseudomonas aeruginosa; settings: Pseudomonas aeruginosa, 659, read-out: MIC P. aeruginosa 659, 19 h, 35 °C
[17] = tested on: HCT116 (human colon cancer); test: MTT cytotoxicity assay; assay type: cell-based; settings: Homo sapiens, HCT-116, 72 h, mean SD
Experimental: (§1) The human cell lines SW480 (primary colon cancer), SW620 (lymph node metastatic colon cancer from the same patient as primary cancer cells), HCT116 (colon carcinoma), HepG2 (liver cancer), and HaCaT (immortalized keratinocytes) were obtained from the American Type Culture Collection (ATCC, Rockville, MD, USA). The SW480, SW620 and HCT116 cells were grown in MEM (ThermoSci, Waltham, MA, USA), HepG2 and HaCaT in DMEM High Glucose (Biowest SAS, Nuaillé, France) supplemented with 10% foetal bovine serum (FBS), HEPES (20 mM), and antibiotics (100 U mL^−1 of Penicillin and 100 μg mL^−1 of Streptomycin). The cells were incubated in a humidified incubator at 37 °C/5% CO2, until 80–90% confluence was reached.
(§2) The cell viability was assessed by using of MTT salt [3-(4,5-dimethylthiazol-2-yl)-2,5-diphenyltetrazolium bromide] converted by mitochondrial dehydrogenase, occurring in living cells. The cells were seeded in 96-well plates at a density of 1 × 10^4 cells per well and allowed to adhere for 24 h at 37 °C in a CO2 humidified incubator. […]. The untreated cells were used as the control.
(§3) After 72 h incubation, the medium was replaced with 200 µL per well of free-serum medium containing 0.5 mg mL^−1 MTT and incubated for 4 h at 37 °C in a CO2 humidified incubator. Subsequently, the medium was removed and dimethyl sulfoxide (DMSO) with isopropanol (1:1) was added to dissolve the formazan crystals. The optical density was measured using UVM 340 reader (ASYS Hitech GmbH, Eugendorf, Austria) at a wavelength of 570 nm. The experiments were repeated three times. The cell viability was calculated as the percent of MTT reduced in treated cells versus control cells (untreated cells). The number of viable cells cultured without tested compounds was assumed as 100%. A decreased relative MTT level indicates decreased cell viability. The IC50 values were estimated using CompuSyn version 1.0.

[18] = tested on: HaCaT (human immortal keratinocyte cell line); test: MTT cytotoxicity assay; assay type: cell-based; settings: Homo sapiens, HaCaT, 72 h, mean SD, read-out: IC50 HaCaT (normal cells)
Experimental: as §1, §2, §3

[19] = tested on: HepG2 (human liver cancer); test: MTT cytotoxicity assay; assay type: cell-based; settings: Homo sapiens, HepG2, 72 h, mean SD
Experimental: as §1, §2, §3

[20] = tested on: SW480 (human primary colon cancer); test: MTT cytotoxicity assay; assay type: cell-based; settings: Homo sapiens, SW480, 72 h, mean SD
Experimental: as §1, §2, §3

[21] = tested on: SW620 (human metastatic colon cancer); test: MTT cytotoxicity assay; assay type: cell-based; settings: Homo sapiens, SW-620, 72 h, mean SD
Experimental: as §1
The cell viability was assessed by using of MTT salt [3-(4,5-dimethylthiazol-2-yl)-2,5-diphenyltetrazolium bromide] converted by mitochondrial dehydrogenase, occurring in living cells. […] The untreated cells were used as the control.
as §3, with “Subsequently,” for “After 72 h incubation, the medium was replaced with 200 µL per well of free-serum medium containing 0.5 mg mL^−1 MTT and incubated for 4 h at 37 °C in a CO2 humidified incubator. Subsequently,”

SMILES	MIC [1] [mg/L]	MIC [2] [mg/L]	MIC [3] [mg/L]	MIC [4] [mg/L]	MIC [5] [mg/L]	MIC [6] [mg/L]	MIC [7] [mg/L]	MIC [8] [mg/L]	MIC [9] [mg/L]	MIC [10] [mg/L]	MIC [11] [mg/L]	MIC [12] [mg/L]	MIC [13] [mg/L]	MIC [14] [mg/L]	MIC [15] [mg/L]	MIC [16] [mg/L]	IC50 [17] [µM]	IC50 [18] [µM]	IC50 [19] [µM]	IC50 [20] [µM]	also measured
CC(C)[C@@H]1CC[C@@H](C)C[C@H]1OC(=O)CCCN1CCN(c2cc3c(cc2F)c(=O)c(C(=O)O)cn3C2CC2)CC1 [Compound 4, 1-cyclopropyl-6-fluoro-7-{4-[4-((1R,2S,5R)-2-isopropyl-5-methylcyclohexyloxy)-4-oxobutyl]piperazin-1-yl}-4-oxo-1,4-dihydroquinoline-3-carboxylic acid]	4 (≈ 7.2 µM)	4 (≈ 7.2 µM)	4 (≈ 7.2 µM)	4 (≈ 7.2 µM)	4 (≈ 7.2 µM)	4 (≈ 7.2 µM)	2 to 4 (≈ 3.6 to 7.2 µM)	64 (≈ 115 µM)	4 (≈ 7.2 µM)	4 (≈ 7.2 µM)	4 (≈ 7.2 µM)	4 (≈ 7.2 µM)	8 (≈ 14.4 µM)	4 (≈ 7.2 µM)	256 (≈ 461 µM)	256 (≈ 461 µM)	24.2 ± 0.1	30.5 ± 2.4	35.1 ± 4.4	36.8 ± 2.6	MIC E. coli ATCC 25922 [7]: 4 mg/L (≈ 7.2 µM); IC50 [21]: 54.3 ± 4.1 µM
CC(C)[C@@H]1CC[C@@H](C)C[C@H]1OC(=O)CCCCN1CCN(c2cc3c(cc2F)c(=O)c(C(=O)O)cn3C2CC2)CC1 [Compound 5, 1-cyclopropyl-6-fluoro-7-{4-[5-((1R,2S,5R)-2-isopropyl-5-methylcyclohexyloxy)-5-oxopentyl)piperazin-1-yl)-4-oxo-1,4-dihydroquinoline-3-carboxylic acid]	4 (≈ 7.02 µM)	8 (≈ 14 µM)	4 (≈ 7.02 µM)	4 (≈ 7.02 µM)	8 (≈ 14 µM)	8 (≈ 14 µM)	16 (≈ 28.1 µM)	256 (≈ 449 µM)	4 (≈ 7.02 µM)	4 (≈ 7.02 µM)	4 (≈ 7.02 µM)	2 (≈ 3.51 µM)	64 (≈ 112 µM)	64 (≈ 112 µM)	> 256	> 256	35.3 ± 1.7	43.3 ± 4.4	49.4 ± 4.6	55.4 ± 3.8	IC50 [21]: 26.5 ± 2.1 µM
Cc1ccc(C(C)C)c(OCC(=O)N2CCN(c3cc4c(cc3F)c(=O)c(C(=O)O)cn4C3CC3)CC2)c1 [Compound 9, 1-cyclopropyl-6-fluoro-7-{4-[2-(2-isopropyl-5-methylphenoxy)acetyl]piperazin-1-yl}-4-oxo-1,4-dihydroquinoline-3-carboxylic acid]	2 (≈ 3.83 µM)	2 (≈ 3.83 µM)	2 (≈ 3.83 µM)	2 (≈ 3.83 µM)	8 (≈ 15.3 µM)	4 (≈ 7.67 µM)	16 (≈ 30.7 µM)	256 (≈ 491 µM)	8 (≈ 15.3 µM)	8 (≈ 15.3 µM)	4 (≈ 7.67 µM)	4 (≈ 7.67 µM)	32 (≈ 61.4 µM)	32 (≈ 61.4 µM)	> 256	256 (≈ 491 µM)	44.5 ± 4	19.9 ± 2.2	25.7 ± 0.8	28.2 ± 0.6	IC50 [21]: 49.1 ± 4.1 µM
Cc1ccc(C(C)C)c(OC(=O)CCN2CCN(c3cc4c(cc3F)c(=O)c(C(=O)O)cn4C3CC3)CC2)c1 [Compound 11, 1-cyclopropyl-6-fluoro-7-{4-[3-(2-isopropyl-5-methylphenoxy)-3-oxopropyl]piperazin-1-yl}-4-oxo-1,4-dihydroquinoline-3-carboxylic acid]	4 (≈ 7.47 µM)	4 (≈ 7.47 µM)	4 (≈ 7.47 µM)	4 (≈ 7.47 µM)	4 (≈ 7.47 µM)	4 (≈ 7.47 µM)	2 to 4 (≈ 3.73 to 7.47 µM)	16 (≈ 29.9 µM)	4 (≈ 7.47 µM)	8 (≈ 14.9 µM)	8 (≈ 14.9 µM)	4 (≈ 7.47 µM)	8 (≈ 14.9 µM)	4 (≈ 7.47 µM)	256 (≈ 478 µM)	16 (≈ 29.9 µM)	39.1 ± 5.8	> 100	51.3 ± 4.1	33.7 ± 6.6	MIC E. coli ATCC 25922 [7]: 4 mg/L (≈ 7.47 µM); IC50 [21]: 43.5 ± 7.5 µM
Cc1ccc(C(C)C)c(OC(=O)CCCCN2CCN(c3cc4c(cc3F)c(=O)c(C(=O)O)cn4C3CC3)CC2)c1 [Compound 13, 1-cyclopropyl-6-fluoro-7-{4-[5-(2-isopropyl-5-methylphenoxy)-5-oxopentyl]piperazin-1-yl}-4-oxo-1,4-dihydroquinoline-3-carboxylic acid]	2 (≈ 3.55 µM)	4 (≈ 7.1 µM)	2 (≈ 3.55 µM)	2 (≈ 3.55 µM)	2 (≈ 3.55 µM)	2 (≈ 3.55 µM)	2 to 4 (≈ 3.55 to 7.1 µM)	16 (≈ 28.4 µM)	2 (≈ 3.55 µM)	2 (≈ 3.55 µM)	2 (≈ 3.55 µM)	2 (≈ 3.55 µM)	4 (≈ 7.1 µM)	8 (≈ 14.2 µM)	128 (≈ 227 µM)	128 (≈ 227 µM)	50.2 ± 3.4	> 100	33.8 ± 2.1	48.1 ± 2.8	MIC E. coli ATCC 25922 [7]: 4 mg/L (≈ 7.1 µM); IC50 [21]: 50.2 ± 0.8 µM
